Results: article PMC9502272, “A Metabolomics Approach for Predicting OATP1B-Type Transporter-Mediated Drug–Drug Interaction Liabilities” (Pharmaceutics, 2022)

Target: T1, Oatp1b2 (Mus musculus, UniProt Q9JJL3)
T1 sequence (Q9JJL3 1-689): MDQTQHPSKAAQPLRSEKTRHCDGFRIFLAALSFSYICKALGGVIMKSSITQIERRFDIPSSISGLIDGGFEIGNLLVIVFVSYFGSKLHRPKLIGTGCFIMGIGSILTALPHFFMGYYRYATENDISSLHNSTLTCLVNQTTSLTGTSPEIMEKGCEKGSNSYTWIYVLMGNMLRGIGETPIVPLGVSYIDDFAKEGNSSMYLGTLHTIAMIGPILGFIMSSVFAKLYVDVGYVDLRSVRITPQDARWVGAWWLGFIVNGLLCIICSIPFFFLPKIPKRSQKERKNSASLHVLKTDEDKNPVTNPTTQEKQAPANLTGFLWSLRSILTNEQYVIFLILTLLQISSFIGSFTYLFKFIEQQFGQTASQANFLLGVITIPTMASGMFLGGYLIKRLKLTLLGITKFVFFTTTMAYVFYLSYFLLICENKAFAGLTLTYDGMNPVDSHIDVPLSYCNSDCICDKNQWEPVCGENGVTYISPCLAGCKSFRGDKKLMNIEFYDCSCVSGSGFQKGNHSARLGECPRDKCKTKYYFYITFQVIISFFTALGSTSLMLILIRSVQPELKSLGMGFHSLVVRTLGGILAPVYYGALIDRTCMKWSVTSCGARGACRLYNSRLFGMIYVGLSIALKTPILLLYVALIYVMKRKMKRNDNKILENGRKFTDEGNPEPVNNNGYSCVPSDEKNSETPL
Assay: Untargeted metabolomics of plasma from untreated wild-type and Oatp1b2(−/−) mice
Details: for Fold of Change KO/WT: plasma of untreated Oatp1b2-deficient (KO) vs wild-type (WT) mice, semi-quantitative, positive = higher in KO, n = 6 per group; for Mean value KO: plasma of untreated Oatp1b2-deficient mice; for Mean value KO / Mean value WT: raw area counts rescaled to median = 1; for Mean value WT: plasma of untreated wild-type mice

Molecule	Fold of Change KO/WT	Mean value KO	Mean value WT
CCCCCCCC/C=C\CCCCCCCC(=O)O[C@H](CO/C=C\CCCCCCCCCCCCCC)COP(=O)(O)OCCN [1-(1-enyl-palmitoyl)-2-oleoyl-GPE (P-16:0/18:1)]	1.32	1.18	.895
O=C1CC(C(=O)O)C(C(=O)O)O1 (stereo not drawn) [isocitric lactone]	1.22	1.08	.884
dihomo-linolenoylcarnitine (C20:3n3 or 6)	1.72	1.37	.795
octadecenedioylcarnitine (C18:1-DC)	12.7	2.35	.185
C=CC1=C(C)/C(=C/C2=NC(=C\c3[nH]c(/C=C4\NC(=O)C(C)=C4C=C)c(C)c3CCC(=O)O)/C(CCC(=O)O)=C2C)NC1=O [biliverdin]	4.09	1.84	.450
CC(=O)N[C@@H](CC(=O)c1ccccc1N)C(=O)O [N-acetylkynurenine (2)]	1.41	1.17	.827
CCCCCCCCCCCCCCCCCC(N)=O [stearamide (18:0)]	1.49	1.19	.800
C[C@H](CCC(=O)O)[C@H]1CC[C@H]2[C@@H]3C[C@@H](O)[C@@H]4C[C@H](O)CC[C@]4(C)[C@H]3CC[C@]12C [6-beta-hydroxylithocholate]	13.1	1.16	.0890
CCCCCCCCCCCCCCC=COCC(O)COP(=O)([O-])OCC[N+](C)(C)C (stereo not drawn) [1-(1-enyl-palmitoyl)-GPC (P-16:0)]	1.59	1.26	.795
CCCCCCCCCCCCCCCCCC(=O)O[C@H](COC(=O)CCCCCCCCCCCCCCC)COP(=O)([O-])OCC[N+](C)(C)C [1-palmitoyl-2-stearoyl-GPC (16:0/18:0)]	1.14	1.09	.960
CCCC(=O)NCC(=O)O [butyrylglycine]	1.72	1.28	.744
O=C(O)CNC(=O)CCc1ccccc1 [phenylpropionylglycine]	2.41	1.58	.656
C[N+](C)(C)CCCCC(=O)[O-] [N,N,N-trimethyl-5-aminovalerate]	3.45	2.06	.597
CCCCC/C=C\C/C=C\C/C=C\C/C=C\CCCC(=O)OC[C@@H](O)COP(=O)(O)OCCN [1-arachidonoyl-GPE (20:4n6)]	1.49	1.20	.803
C/C=C(\C)C(=O)NCC(=O)O [tigloylglycine]	1.38	1.22	.883
eicosenedioate (C20:1-DC)	5.36	1.80	.335
eicosadienamide (20:2)	1.46	1.27	.869
CCCCCC/C=C\CCCCCCCC(=O)O[C@H](CO)COP(=O)([O-])OCC[N+](C)(C)C [2-palmitoleoyl-GPC (16:1)]	1.95	1.36	.696
O=C1Cc2ccccc2N1 [indolin-2-one]	1.51	1.20	.797
equol glucuronide	1.90	1.35	.709
CCCCCCCC/C=C\CCCCCCCC(=O)OCC(O)COP(=O)(O)OCC(O)CO (stereo not drawn) [1-oleoyl-GPG (18:1)]	8.19	1.80	.219
CCCCCCCC/C=C\CCCCCCCC(=O)O[C@H](COC(=O)CCCCCCCCCCCCCCC)COP(=O)([O-])OCC[N+](C)(C)C [1-palmitoyl-2-oleoyl-GPC (16:0/18:1)]	1.30	1.08	.834
hexadecenedioate (C16:1-DC)	3.61	1.62	.448

Molecule	Fold of Change KO/WT	Mean value KO	Mean value WT
CCCCC/C=C\C/C=C\CCCCCCCC(=O)O[C@H](CO/C=C\CCCCCCCCCCCCCC)COP(=O)(O)OCCN [1-(1-enyl-palmitoyl)-2-linoleoyl-GPE (P-16:0/18:2)]	1.34	1.16	.862
CCCCCC=CCC=CCCCCCCCC(=O)OCC(O)COP(=O)(O)OCC(O)CO (stereo not drawn) [1-linoleoyl-GPG (18:2)]	3.71	1.96	.529
O=C(O)CCCCCCCCCCCCCCC(=O)O [hexadecanedioate (C16-DC)]	2.10	1.57	.749
C[C@H](CCC(=O)NCCS(=O)(=O)O)[C@H]1CC[C@H]2[C@@H]3CC[C@@H]4C[C@H](O)CC[C@]4(C)[C@H]3C[C@H](O)[C@]12C [taurodeoxycholate]	3.45	1.82	.528
CCCCCCCC/C=C\CCCCCCCC(=O)OC[C@@H](O)COP(=O)(O)OCCN [1-oleoyl-GPE (18:1)]	2.05	1.30	.634
CCCCCCCCCCCCCCCC(=O)OC[C@@H](O)COP(=O)(O)OCC(O)CO (stereo partly drawn) [1-palmitoyl-GPG (16:0)]	5.40	2.00	.371
O=C(O)CCCCCCCCCC(=O)O [undecanedioate (C11-DC)]	3.00	1.96	.654
Cc1ncc(CO)c(C(=O)O)c1O [pyridoxate]	1.34	1.21	.902
O=C(O)CCCCCCCCCCCCCCCC(=O)O [heptadecanedioate (C17-DC)]	1.66	1.36	.818
CCCCCCCCCCCCCCCCCC(=O)OC[C@@H](O)COP(=O)(O)OCC(O)CO (stereo partly drawn) [1-stearoyl-GPG (18:0)]	4.16	1.76	.423
O=C(O)CCc1ccccc1.O=C(O)CCc1ccccc1 [3-phenylpropionate (hydrocinnamate)]	1.62	1.39	.855
CCCCC/C=C\C/C=C\CCCCCCCC(=O)OC[C@@H](O)COP(=O)(O)OCCN [1-linoleoyl-GPE (18:2)]	1.94	1.42	.736
C[C@H](CCC(=O)O)[C@H]1CC[C@H]2[C@@H]3C[C@H](O)[C@@H]4C[C@H](O)CC[C@]4(C)[C@H]3CC[C@]12C [hyodeoxycholate]	14.7	3.94	.269
CCc1ccc(OS(=O)(=O)[O-])cc1.[K+] [4-ethylphenylsulfate]	17.2	4.08	.238
CCCCCCCC/C=C\CCCCCCCC(=O)OC[C@@H](O)COP(=O)(O)OC1[C@H](O)[C@H](O)C(O)[C@H](O)[C@H]1O (stereo partly drawn) [1-oleoyl-GPI (18:1)]	1.87	1.36	.729
CCCCCC/C=C\CCCC(=O)OC(CC(=O)[O-])C[N+](C)(C)C (stereo not drawn) [5-dodecenoylcarnitine (C12:1)]	1.46	1.37	.936
CCCCC/C=C\C/C=C\CCCCCCCCCC(=O)OC(CC(=O)[O-])C[N+](C)(C)C (stereo not drawn) [dihomo-linoleoylcarnitine (C20:2)]	1.75	1.37	.785
CCCCCCCC/C=C\CCCCCCCC(=O)OC[C@@H](O)COP(=O)([O-])OCC[N+](C)(C)C [1-oleoyl-GPC (18:1)]	1.78	1.30	.732
CC(=O)N[C@@H](CCCCNC(N)=O)C(=O)O [N-acetylhomocitrulline]	1.35	1.17	.861
NCCS(=O)O [hypotaurine]	1.28	1.14	.887
CCC(CO)C(=O)O (stereo not drawn) [3-hydroxy-2-ethylpropionate]	1.25	1.10	.879
O=C(O)CCCCCCCCCCCCCCCCCC(=O)O [nonadecanedioate (C19-DC)]	1.44	1.30	.902
